The values that follow come from patent publication US5108930A, “Aminoguanidine assay and applications thereof” (Alteon Inc., priority 1990, dated 1992).

Data set [1] relates to glucose-mediated cross-linking of proteins. The conditions noted are these: cited from earlier work.
Data set [2] relates to diamine oxidase. The conditions noted are these: cited from earlier work.
Data set [3] deals with histaminase. The conditions noted are these: cited from earlier work.
The test system of data set [4] is histamine. The conditions noted are these: human pregnancy (title of cited paper); cited from earlier work.
A short description of data set [5]: elimination half-life of aminoguanidine in plasma of patients (HPLC assay) for measurement of kidney function. Type of data set: in vivo, human. The following applies: 300 mg oral aminoguanidine hydrochloride; for half-life: human, plasma, po, 300 mg, plasma at 10, 14, 18 hours, read-out: AG T1/2 (converted). The method, then: A) A single 300 mg dose of aminoguanidine hydrochloride is administered to the patient. Administration may be either by a capsule or tablet taken orally, or by a liquid syrup, elixir or the like.
B) After administration of the aminoguanidine or analog material, periodic collection of plasma samples is then conducted. For example, minimum 3 ml blood samples may be collected, and in the instance where aminoguanidine is administered in dry form as in a pill, the first sample may be taken 10 hours after ingestion, the second sample may be taken 14 hours after ingestion, and the third sample may be taken 18 hours after ingestion. In the instance where a liquid is administered, a similar regimen may be observed.
C) The samples collected at the intervals indicated may then be processed in accordance with the method of the present invention to determine aminoguanidine concentration.
D) Thereafter, the elimination half-life (T1/2) may be determined. Particularly, the data may be interpreted and determined by reference to the relationship wherein the slope of the logarithmic decline of plasma concentration over time is identified as the elimination rate (Kelim). Elimination half-life (T1/2) is related to Kelim by the following equation: [formula]
To a 0.5 mL plasma sample was added 0.5 mL of the working internal standard solution (10 μg/mL N-ethyl aminoguanidine tosylate in 7.5% trichloracetic acid). After vortexing (10 sec.) and centrifugation in a microfuge (Eppendorf, 14,000 rpm, 10 min.), the supernatant was decanted into a clean screw top culture tube containing 0.1 mL of an aqueous (10 mg/mL) solution of reacting agent (6-methyl-2-pyridine-carboxaldehyde). The sample was then capped tightly and reacted in a heating block (95°-100° C.) for 10 minutes. After cooling, i the sample was transferred into an HPLC vial, from which a 200 μL aliquot was injected for HPLC analysis.
A Waters Associates Model 510 pump was utilized with a radial compression column (Waters Novapak CN, 8 mm ×10 cm, 4 μm particle size) and a cyano (Waters Resolve Guard-Pak CN) precolumn. Detection was performed using a variable ultraviolet detector (Waters 484) at 302 nm. The mobile phase consisted of (volume to volume) 15% acetonitrile: 10% methanol: 75% of 0.01 M each of 1heptanesulfonic acid and sodium phosphate monobasic. Flow rate was maintained isocratically at 2.0 mL/min. at ambient temperature. Sequential automatic injections were made via a programmable sampler (Waters WISP 712).
All data acquisitions were performed with a Waters Maxima 820 system. A linear test squares analysis of the ratios of drug peak height to internal standard peak height versus concentrations added to human plasma in standards constituted daily instrumentation standardization. Interpolation from the linear regression line determined concentrations of aminoguanidine in quality control and unknown assayed samples
[…] After administration of this total dosage, plasma samples were collected from each of the patients at intervals of 10 hours, 14 hours and 18 hours after administration. The plasma samples were then taken and subjected to the assay of the present invention, in accordance with the protocol utilized in Example 1.
Accordingly, the samples were first combined with a quantity of a working internal standard solution of N-ethyl aminoguanidine tosylate in 7.5 percent trichloroacetic acid. The resulting samples were vortexed for 10 seconds and centrifuged for a period of 10 minutes at a speed of 14,000 rpm. The supernatants were then decanted into a culture tube containing 0 1 ml of an aqueous solution ([…]) of 6-methyl picolinaldehyde. The samples were then tightly capped and reacted in a heating block for a period of 10 minutes, and after cooling, were transferred into HPLC vials from which aliquots were then injected for HPLC analysis.
A radial compression chromatographic column was utilized with an isocratic flow rate and under paired-ion conditions. […]

Entries after “also recorded” stand apart in the source; their conditions may differ. Read-outs that look alike come from different tables or passages of the source.

Take `N=C(N)NN` [aminoguanidine]: the “inhibition of glucose-mediated cross-linking of proteins” value in data set [1] is reported as “inhibitor of glucose-mediated cross-linking of proteins”. Moreover, the “inhibition of diamine oxidase” value in data set [2] is “selective inhibitor”. For the same molecule, the “inhibitory action on the enzyme histaminase” value in data set [3] was “inhibitory action”. In addition, the levels of histamine entry in data set [4] is reported as “increase levels of histamine”. Also, the “relationship between aminoguanidine half-life and kidney function (GFR), in words” value in data set [5] is “fairly consistent and linear relationship; also recorded: excellent linear correlation; also recorded: inverse relationship”. Moreover, the “correlation coefficient r of aminoguanidine T1/2 with GFR” value in data set [5] (n=18) was 0.875. In addition, the half-life in data set [5] (patient 1, GFR 12.8) was 24.6 h; in data set [5] (patient 2, GFR 52.4), 14.2 h; in data set [5] (patient 3, GFR 116.3), 3.83 h; in data set [5] (patient 4, GFR 44.1), 21.8 h; in data set [5] (patient 5, GFR 31.1) it was 19 h; in data set [5] (patient 6, GFR 80.5) it was 6.78 h. In addition, the half-life in data set [5] (patient 7, GFR 26.7) was 14.8 h; in data set [5] (patient 8, GFR 12.1) it was 24.9 h; in data set [5] (patient 9, GFR 117.2) it was 4.73 h; in data set [5] (patient 10, GFR 148.9), 3.94 h; in data set [5] (patient 11, GFR 111.9) it was 6.82 h; in data set [5] (patient 12, GFR 103.8), 6.08 h. Besides, the half-life in data set [5] (patient 13, GFR 41.6) is 14.9 h; in data set [5] (patient 14, GFR 39.2), 9.54 h; in data set [5] (patient 15, GFR 113.2), 4.81 h; in data set [5] (patient 16, GFR 82.2), 6.03 h; in data set [5] (patient 18, GFR 131.3), 7.05 h; in data set [5] (patient 19, GFR 131.1), 6.46 h.
